According to patent US10604741B2, “Compositions and methods for enhancing virus replication” (TURNSTONE LIMITED PARTNERSHIP, priority 2013, dated 2020):
Read-outs that look alike come from different tables or passages of the source.

What was measured:
VSVΔ51 in MC38 cells = type: cell-based, mouse; conditions: 48 hours
VSVΔ51 in 786-0 cells [1] = type: cell-based, human
Reovirus in 786-0 cells = type: cell-based, human; conditions: 48 hours
[2] = system: human H1N1 Influenza A strain FM/1/47 in MRC5 cells; experiment: Influenza A titers in MRC5 cells treated with FGF2, nucleoprotein ELISA; type: cell-based; conditions: FGF2 100 ng/ml, serum free media; MOI 0.05 or 0.1; FIG. 21
Description: MRC5 cells were treated with 100 ng/ml FGF2, 100 ng/ml leptin, or mock treated, in serum free media.
48 hours later, cells were infected with the human H1N1 Influenza A strain FM/1/47 at MOI 0.05 or 0.1, as indicated, in the presence of 1 μg/ml TPCK trypsin. 48 h (MOI 0.1) or 72 h (MOI 0.05) later, supernatants from triplicate wells were collected and pooled. Viral titers were obtained by ELISA for Influenza A nucleoprotein. The resulting titers are illustrated in FIG. 21.

VSVΔ51 in GM38 cells = type: cell-based, human; conditions: 24 hours
VSVΔ51 in MiaPaca tumors [3] = type: in vivo, SCID mice; conditions: 72 hours
VSVΔ51 in OVCAR8 cells = type: cell-based, human; conditions: 24 hours
JX594-GFP in 786-0 cells [4] = type: cell-based, human; conditions: 48 hours
VSVΔ51 in MiaPaca tumors [5] = type: cell-based, SCID mice
VSVΔ51 in 786-0 tumors [6] = type: cell-based, SCID mice
VSVΔ51 in 786-0 cells [7] = type: cell-based, human; conditions: 24 hours
VSVΔ51 in CT26 cells = type: cell-based, mouse; conditions: 24 hours
VSVΔ51 in 786-0 tumors [8] = system: VSVΔ51 in 786-0 tumors; design: species or system SCID mice; conditions: mouse, in vivo, iv
VSV in 786-0 cells = type: cell-based, human; conditions: 24 hours
MG1 in 786-0 cells = type: cell-based, human; conditions: 24 hours
HSV-1 in 786-0 cells = type: cell-based, human; conditions: 48 hours
[9] = system: Measles virus (Edmonston strain) in WI38 cells; experiment: Measles virus titers in WI38 cells treated with FGF2, plaque assay; type: cell-based, human; conditions: FGF2 100 ng/ml, serum free media; MOI 0.1; 48 hours; FIG. 22
Description: WI38 cells were treated with 100 ng/ml FGF2, or mock treated, in serum free media.
24 hours later, cells were infected with Measles virus (Edmonston strain) at an MOI 0.1. 48 hours later, supernatants were collected and virus titration was performed by plaque assay in Vero cells. The resulting titers are illustrated in FIG. 22.

VSVΔ51 in WI38 cells = type: cell-based, human; conditions: 24 hours
VSVΔ51 in OVCAR8 tumors = system: VSVΔ51 in OVCAR8 tumors; design: species or system SCID mice; conditions: mouse, in vivo, iv
[10] = Enhancement of virus replication, test not described; conditions: no test details given
JX594-GFP in 786-0 cells [11] = type: cell-based, human

## FGF2: recombinant human FGF2 protein; amino acid sequence shown in SEQ ID NO: 9
VSVΔ51 in MC38 cells
  Virus titre: 7.73e6 ± 9.8e5 pfu/mL
VSVΔ51 in 786-0 cells [1]
  rate of production of VSVΔ51 compared to untreated 786-0 cells: increased
VSVΔ51 in 786-0 cells [1]; 24 hours
  FGF2 concentration at which enhanced VSVΔ51 replication is seen: ≤ 20 ng/mL
  total PFU/mL, fold higher than untreated or FGF1-treated cells: at least 15 fold
  virus replication vs untreated cells: enhanced virus replication
VSVΔ51 in 786-0 cells [1]; after 6 hours
  pfu/ml in cell associated supernatants: about 1E2 pfu/ml
VSVΔ51 in 786-0 cells [1]; after 48 hours
  plaque forming units/mL in cell associated supernatants: about 5E6 pfu/mL
Reovirus in 786-0 cells
  virus replication vs untreated cells: enhanced virus replication
[2]
  influenza viral replication (viral titers): Enhanced Viral Replication
VSVΔ51 in GM38 cells
  effect on virus replication: did not significantly affect virus replication
VSVΔ51 in MiaPaca tumors [3]
  VSVΔ51 titers in tumors: enhanced virus replication
VSVΔ51 in OVCAR8 cells
  total PFU/mL, fold higher than untreated or FGF1-treated cells: at least 15 fold
JX594-GFP in 786-0 cells [4]
  virus replication vs untreated cells: enhanced virus replication
VSVΔ51 in MiaPaca tumors [5]
  ex-vivo virus infection and GFP expression, fluorescent pictures: increased ex-vivo virus infection and transgene protein expression (GFP)
VSVΔ51 in MiaPaca tumors [5]; 48 hours
  ex vivo virus production (virus titers): enhancement of ex vivo virus production
VSVΔ51 in 786-0 tumors [6]
  ex-vivo virus infection and GFP expression, fluorescent pictures: increased ex-vivo virus infection and transgene protein expression (GFP)
VSVΔ51 in 786-0 tumors [6]; 48 hours
  ex vivo virus production (virus titers): enhancement of ex vivo virus production
VSVΔ51 in 786-0 cells [7]
  virus titers, fold higher compared to control (untreated and FGF1-treated) cells: 10 fold
VSVΔ51 in CT26 cells
  total PFU/mL, fold higher than untreated or FGF1-treated cells: at least 15 fold
VSVΔ51 in 786-0 tumors [8]
  VSVΔ51 titers in tumors: enhanced virus replication
VSV in 786-0 cells
  virus replication vs untreated cells: enhanced virus replication
MG1 in 786-0 cells
  virus replication vs untreated cells: enhanced virus replication
HSV-1 in 786-0 cells
  virus replication vs untreated cells: enhanced virus replication
[9]
  measles viral replication (virus titers): Enhanced Viral Replication
VSVΔ51 in WI38 cells
  total PFU/mL, fold higher than untreated or FGF1-treated cells: at least 15 fold
VSVΔ51 in OVCAR8 tumors
  VSVΔ51 titers in tumors: enhanced virus replication

## SEQ ID NO: 14: human recombinant FGF2 protein (Accession: # P09038)
[10]
  virus replication: enhance virus replication

B1: mFGF2: recombinant murine FGF2 protein; amino acid sequence shown in SEQ ID NO: 11 (protein)
chain: MAASGITSLPALPEDGGAAFPPGHFKDPKRLYCKNGGFFLRIHPDGRVDGVREKSDPHVKLQLQAEERGVVSIKGVCANRYLAMKEDGRLLASKCVTEECFFFERLESNNYNTYRSRKYSSWYVALKRTGQYKLGSKTGPGQKAILFLPMSAKS
modifications: recombinant mouse protein
JX594-GFP in 786-0 cells [11]
  Average of pixel intensity: 24.90
  Relative pixel intensity increase: 4.37
JX594-GFP in 786-0 cells [11]; after 48 hours
  Average of pixel intensity: 24.90
  Relative pixel intensity increase: 4.37
VSVΔ51 in MC38 cells
  Virus titre: 8.20e6 ± 1.1e6 pfu/mL
